Test results: ChEMBL document CHEMBL4507299, “Data for DCP probe PF-04554878” (2021)

What was measured:
[1] = tested on: Tyrosine-protein kinase ABL1 (Homo sapiens), P00519 [T315I]
[2] = biological target: Activin receptor type-2B (Homo sapiens) (UniProt Q13705)
[3] = biological target: Activin receptor type-1-like (Homo sapiens) (UniProt P37023)
[4] = biological target: Mitogen-activated protein kinase kinase kinase 6 (Homo sapiens) (UniProt O95382)
[5] = biological target: Protein-tyrosine kinase 6 (Homo sapiens) (UniProt Q13882)
[6] = biological target: Calcium/calmodulin-dependent protein kinase type II subunit alpha (Homo sapiens) (UniProt Q9UQM7)
[7] = biological target: Calcium/calmodulin-dependent protein kinase kinase 1 (Homo sapiens) (UniProt Q8N5S9)
[8] = biological target: Cyclin-dependent kinase 19 (Homo sapiens) (UniProt Q9BWU1)
[9] = biological target: Cyclin-dependent kinase 7 (Homo sapiens) (UniProt P50613)
[10] = biological target: Casein kinase I isoform alpha (Homo sapiens) (UniProt P48729)
[11] = biological target: Epidermal growth factor receptor (Homo sapiens) (UniProt P00533)
[12] = tested on: Epidermal growth factor receptor (Homo sapiens), P00533 [UNDEFINED MUTATION]
[13] = biological target: Eukaryotic translation initiation factor 2-alpha kinase 1 (Homo sapiens) (UniProt Q9BQI3)
[14] = biological target: Ephrin type-B receptor 4 (Homo sapiens) (UniProt P54760)
[15] = biological target: Fibroblast growth factor receptor 1 (Homo sapiens) (UniProt P11362)
[16] = tested on: Receptor-type tyrosine-protein kinase FLT3 (Homo sapiens), P36888 [D835Y]
[17] = tested on: Receptor-type tyrosine-protein kinase FLT3 (Homo sapiens), P36888 [UNDEFINED MUTATION]
[18] = biological target: Rhodopsin kinase GRK1 (Homo sapiens) (UniProt Q15835)
[19] = biological target: Beta-adrenergic receptor kinase 1 (Homo sapiens) (UniProt P25098)
[20] = biological target: G protein-coupled receptor kinase 4 (Homo sapiens) (UniProt P32298)
[21] = biological target: Mitogen-activated protein kinase 9 (Homo sapiens) (UniProt P45984)
[22] = biological target: Mitogen-activated protein kinase 10 (Homo sapiens) (UniProt P53779)
[23] = tested on: Mast/stem cell growth factor receptor Kit (Homo sapiens), P10721 [D816H]
[24] = biological target: Serine/threonine-protein kinase LATS2 (Homo sapiens) (UniProt Q9NRM7)
[25] = biological target: Mitogen-activated protein kinase kinase kinase kinase 5 (Homo sapiens) (UniProt Q9Y4K4)
[26] = biological target: Dual specificity mitogen-activated protein kinase kinase 1 (Homo sapiens) (UniProt Q02750)
[27] = biological target: Serine/threonine-protein kinase 24 (Homo sapiens) (UniProt Q9Y6E0)
[28] = biological target: Myosin light chain kinase 2, skeletal/cardiac muscle (Homo sapiens) (UniProt Q9H1R3)
[29] = biological target: Serine/threonine-protein kinase Nek3 (Homo sapiens) (UniProt P51956)
[30] = biological target: Serine/threonine-protein kinase Nek6 (Homo sapiens) (UniProt Q9HC98)
[31] = biological target: Serine/threonine-protein kinase Nek7 (Homo sapiens) (UniProt Q8TDX7)
[32] = biological target: Phosphatidylinositol 4,5-bisphosphate 3-kinase catalytic subunit beta isoform (Homo sapiens) (UniProt P42338)
[33] = biological target: Phosphatidylinositol 4-phosphate 5-kinase type-1 alpha (Homo sapiens) (UniProt Q99755)
[34] = biological target: Protein kinase C epsilon type (Homo sapiens) (UniProt Q02156)
[35] = biological target: cGMP-dependent protein kinase 2 (Homo sapiens) (UniProt Q13237)
[36] = tested on: Proto-oncogene tyrosine-protein kinase receptor Ret (Homo sapiens), P07949 [V804M]
[37] = biological target: Ribosomal protein S6 kinase alpha-3 (Homo sapiens) (UniProt P51812)
[38] = biological target: Ribosomal protein S6 kinase beta-1 (Homo sapiens) (UniProt P23443)
[39] = biological target: Serine/threonine-protein kinase SIK1 (Homo sapiens) (UniProt P57059)
[40] = biological target: SRSF protein kinase 1 (Homo sapiens) (UniProt Q96SB4)
[41] = biological target: Tyrosine-protein kinase Tec (Homo sapiens) (UniProt P42680)
[42] = biological target: Serine/threonine-protein kinase 25 (Homo sapiens) (UniProt O00506)
[43] = biological target: GABA-A receptor; anion channel (Rattus norvegicus) (UniProt O09028+P15431+P18506+P18508+P19969+P20236+P23574+P23576+P28471+P28473+P30191+P62813+P63079+P63138+Q91ZM7+Q9ES14); conditions: Compound concentration 10.0 uM
[44] = species on record: Rattus norvegicus; conditions: Compound concentration 10.0 uM
[45] = Compound concentration 100.0 nM
[46] = Compound concentration 1000.0 nM

Protein kinase C epsilon type (Homo sapiens), sequence (Q02156 whole entry): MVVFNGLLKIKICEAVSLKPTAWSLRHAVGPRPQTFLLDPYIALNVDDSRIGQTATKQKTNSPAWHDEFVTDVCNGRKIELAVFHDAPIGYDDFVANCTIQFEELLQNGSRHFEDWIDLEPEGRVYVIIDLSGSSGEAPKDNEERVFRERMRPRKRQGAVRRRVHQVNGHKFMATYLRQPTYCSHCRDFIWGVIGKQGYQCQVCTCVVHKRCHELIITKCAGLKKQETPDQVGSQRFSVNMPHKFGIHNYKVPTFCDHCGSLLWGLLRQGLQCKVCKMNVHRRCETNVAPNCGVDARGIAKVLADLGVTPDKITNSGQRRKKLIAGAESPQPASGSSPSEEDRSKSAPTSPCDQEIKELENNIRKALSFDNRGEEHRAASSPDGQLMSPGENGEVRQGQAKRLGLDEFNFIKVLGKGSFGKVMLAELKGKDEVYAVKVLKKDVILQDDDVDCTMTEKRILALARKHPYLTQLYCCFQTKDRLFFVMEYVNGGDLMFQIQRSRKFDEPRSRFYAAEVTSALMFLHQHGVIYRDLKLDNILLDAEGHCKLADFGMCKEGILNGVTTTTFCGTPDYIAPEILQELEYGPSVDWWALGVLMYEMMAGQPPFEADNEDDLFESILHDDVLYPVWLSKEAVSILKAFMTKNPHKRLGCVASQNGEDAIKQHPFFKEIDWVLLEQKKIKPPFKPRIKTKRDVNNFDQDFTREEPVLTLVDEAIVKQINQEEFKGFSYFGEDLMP
Cyclin-dependent kinase 19 (Homo sapiens), sequence (Q9BWU1 whole entry): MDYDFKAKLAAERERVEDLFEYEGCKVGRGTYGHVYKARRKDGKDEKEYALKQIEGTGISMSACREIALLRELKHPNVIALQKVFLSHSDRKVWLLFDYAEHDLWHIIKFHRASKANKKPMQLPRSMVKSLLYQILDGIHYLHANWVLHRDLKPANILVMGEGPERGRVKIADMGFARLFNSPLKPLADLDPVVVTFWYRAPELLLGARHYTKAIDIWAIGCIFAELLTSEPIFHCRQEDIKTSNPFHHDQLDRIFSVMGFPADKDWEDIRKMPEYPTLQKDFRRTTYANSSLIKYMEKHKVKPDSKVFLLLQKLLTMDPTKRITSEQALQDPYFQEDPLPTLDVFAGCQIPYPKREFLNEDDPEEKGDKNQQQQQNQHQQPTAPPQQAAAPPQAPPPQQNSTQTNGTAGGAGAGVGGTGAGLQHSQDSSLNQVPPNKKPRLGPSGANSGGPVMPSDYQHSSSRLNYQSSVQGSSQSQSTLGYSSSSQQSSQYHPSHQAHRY
Rhodopsin kinase GRK1 (Homo sapiens), sequence (Q15835 whole entry): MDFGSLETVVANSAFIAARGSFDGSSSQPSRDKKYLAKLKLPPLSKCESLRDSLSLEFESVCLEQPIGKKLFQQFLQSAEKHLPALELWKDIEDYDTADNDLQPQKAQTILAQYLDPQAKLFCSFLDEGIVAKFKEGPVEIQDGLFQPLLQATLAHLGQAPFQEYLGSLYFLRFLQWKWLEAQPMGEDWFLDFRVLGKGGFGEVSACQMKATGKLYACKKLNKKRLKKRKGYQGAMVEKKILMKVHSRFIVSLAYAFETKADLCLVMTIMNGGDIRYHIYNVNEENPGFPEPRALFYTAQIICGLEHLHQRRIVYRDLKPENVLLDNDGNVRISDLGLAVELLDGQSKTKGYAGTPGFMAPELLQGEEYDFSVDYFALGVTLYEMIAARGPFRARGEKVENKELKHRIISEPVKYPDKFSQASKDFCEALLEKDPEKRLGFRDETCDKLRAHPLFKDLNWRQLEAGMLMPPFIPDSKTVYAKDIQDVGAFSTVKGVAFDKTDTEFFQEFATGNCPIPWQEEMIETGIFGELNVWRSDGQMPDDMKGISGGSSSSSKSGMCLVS
Eukaryotic translation initiation factor 2-alpha kinase 1 (Homo sapiens), sequence (Q9BQI3 whole entry): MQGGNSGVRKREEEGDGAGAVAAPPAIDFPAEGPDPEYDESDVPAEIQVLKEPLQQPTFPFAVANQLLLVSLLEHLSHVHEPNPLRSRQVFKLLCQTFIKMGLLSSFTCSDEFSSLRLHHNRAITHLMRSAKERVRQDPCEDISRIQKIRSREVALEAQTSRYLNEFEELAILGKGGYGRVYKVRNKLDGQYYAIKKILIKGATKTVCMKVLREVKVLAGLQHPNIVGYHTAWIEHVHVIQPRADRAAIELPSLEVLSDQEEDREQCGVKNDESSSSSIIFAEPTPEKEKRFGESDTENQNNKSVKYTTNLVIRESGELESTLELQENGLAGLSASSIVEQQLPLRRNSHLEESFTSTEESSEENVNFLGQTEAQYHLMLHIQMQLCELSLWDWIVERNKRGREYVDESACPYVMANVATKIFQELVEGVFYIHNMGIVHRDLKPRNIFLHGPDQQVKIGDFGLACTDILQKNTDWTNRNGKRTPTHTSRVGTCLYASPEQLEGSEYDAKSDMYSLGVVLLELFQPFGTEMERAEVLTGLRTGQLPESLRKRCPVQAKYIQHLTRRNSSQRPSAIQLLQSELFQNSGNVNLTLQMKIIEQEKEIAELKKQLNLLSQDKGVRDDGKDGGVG
Serine/threonine-protein kinase 24 (Homo sapiens), sequence (Q9Y6E0 whole entry, looked up): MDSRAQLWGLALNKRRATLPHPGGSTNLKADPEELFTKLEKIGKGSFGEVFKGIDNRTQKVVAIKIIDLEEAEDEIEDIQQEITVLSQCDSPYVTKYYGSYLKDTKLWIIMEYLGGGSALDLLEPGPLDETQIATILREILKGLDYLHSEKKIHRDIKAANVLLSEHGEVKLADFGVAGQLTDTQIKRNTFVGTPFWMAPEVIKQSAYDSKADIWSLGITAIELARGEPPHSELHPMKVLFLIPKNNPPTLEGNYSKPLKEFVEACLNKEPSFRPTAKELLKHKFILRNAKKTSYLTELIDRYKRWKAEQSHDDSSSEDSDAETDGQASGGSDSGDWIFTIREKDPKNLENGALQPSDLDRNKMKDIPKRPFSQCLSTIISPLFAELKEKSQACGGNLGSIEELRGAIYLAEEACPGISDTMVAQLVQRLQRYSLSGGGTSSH
Ribosomal protein S6 kinase alpha-3 (Homo sapiens), sequence (P51812 whole entry): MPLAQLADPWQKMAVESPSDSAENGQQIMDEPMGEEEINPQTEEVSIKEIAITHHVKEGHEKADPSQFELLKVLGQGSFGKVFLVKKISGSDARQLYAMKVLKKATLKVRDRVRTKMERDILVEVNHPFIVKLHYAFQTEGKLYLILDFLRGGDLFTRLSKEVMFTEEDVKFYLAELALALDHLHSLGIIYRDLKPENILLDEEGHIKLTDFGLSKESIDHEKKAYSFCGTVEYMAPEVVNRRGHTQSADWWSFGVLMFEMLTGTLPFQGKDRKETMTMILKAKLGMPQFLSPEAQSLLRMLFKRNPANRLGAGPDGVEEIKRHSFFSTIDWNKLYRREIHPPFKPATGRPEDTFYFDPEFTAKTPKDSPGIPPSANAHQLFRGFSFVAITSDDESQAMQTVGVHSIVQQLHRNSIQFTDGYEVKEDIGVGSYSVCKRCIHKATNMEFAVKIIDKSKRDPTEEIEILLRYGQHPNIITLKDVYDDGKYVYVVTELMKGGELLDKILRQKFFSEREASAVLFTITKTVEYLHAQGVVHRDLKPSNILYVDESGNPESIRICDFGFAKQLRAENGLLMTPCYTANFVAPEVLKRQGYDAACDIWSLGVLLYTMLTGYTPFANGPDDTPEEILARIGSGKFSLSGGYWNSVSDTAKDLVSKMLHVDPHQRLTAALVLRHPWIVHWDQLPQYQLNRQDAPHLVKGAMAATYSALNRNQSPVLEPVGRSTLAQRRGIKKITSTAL
Calcium/calmodulin-dependent protein kinase type II subunit alpha (Homo sapiens), sequence (Q9UQM7 whole entry): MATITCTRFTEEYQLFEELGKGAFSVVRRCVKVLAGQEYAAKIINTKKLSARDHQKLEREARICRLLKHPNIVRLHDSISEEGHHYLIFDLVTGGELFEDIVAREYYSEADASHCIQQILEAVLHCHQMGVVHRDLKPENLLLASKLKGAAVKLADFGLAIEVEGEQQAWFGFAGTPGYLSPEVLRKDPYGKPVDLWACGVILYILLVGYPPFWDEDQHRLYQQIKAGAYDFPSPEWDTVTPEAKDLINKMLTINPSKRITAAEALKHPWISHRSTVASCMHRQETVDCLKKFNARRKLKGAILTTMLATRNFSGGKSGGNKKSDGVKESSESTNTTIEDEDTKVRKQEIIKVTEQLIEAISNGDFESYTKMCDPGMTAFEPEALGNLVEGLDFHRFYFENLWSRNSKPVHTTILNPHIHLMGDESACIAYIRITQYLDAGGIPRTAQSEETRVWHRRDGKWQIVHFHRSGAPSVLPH
Mitogen-activated protein kinase 10 (Homo sapiens), sequence (P53779 whole entry): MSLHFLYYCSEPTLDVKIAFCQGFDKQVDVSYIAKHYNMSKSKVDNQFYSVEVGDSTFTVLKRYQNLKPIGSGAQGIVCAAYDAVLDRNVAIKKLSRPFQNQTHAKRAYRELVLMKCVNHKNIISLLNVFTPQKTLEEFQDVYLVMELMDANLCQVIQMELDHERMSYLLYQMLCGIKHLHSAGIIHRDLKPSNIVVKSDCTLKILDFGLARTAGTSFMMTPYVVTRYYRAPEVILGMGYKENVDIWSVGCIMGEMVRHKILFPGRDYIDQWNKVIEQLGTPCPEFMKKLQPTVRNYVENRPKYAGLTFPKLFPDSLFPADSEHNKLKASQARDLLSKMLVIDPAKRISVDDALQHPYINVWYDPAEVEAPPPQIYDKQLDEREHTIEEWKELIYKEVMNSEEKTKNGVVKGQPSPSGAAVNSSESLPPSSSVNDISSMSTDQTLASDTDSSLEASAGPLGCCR
Mitogen-activated protein kinase 9 (Homo sapiens), sequence (P45984 whole entry, looked up): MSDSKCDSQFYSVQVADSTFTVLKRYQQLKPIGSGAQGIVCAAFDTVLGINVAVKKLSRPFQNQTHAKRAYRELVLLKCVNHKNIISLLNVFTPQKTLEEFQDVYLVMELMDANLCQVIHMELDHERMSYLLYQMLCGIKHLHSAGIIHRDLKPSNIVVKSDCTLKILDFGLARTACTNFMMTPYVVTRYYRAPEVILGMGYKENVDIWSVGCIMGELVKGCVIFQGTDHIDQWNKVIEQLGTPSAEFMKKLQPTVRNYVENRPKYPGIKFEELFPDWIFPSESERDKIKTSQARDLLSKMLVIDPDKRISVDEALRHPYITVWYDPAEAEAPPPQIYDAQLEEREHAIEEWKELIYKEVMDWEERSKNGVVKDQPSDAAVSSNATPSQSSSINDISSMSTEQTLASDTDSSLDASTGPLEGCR

CNC(=O)c1ccc(Nc2ncc(C(F)(F)F)c(NCc3nccnc3N(C)S(C)(=O)=O)n2)cc1 [DEFACTINIB]
inactive: residual activity [1, 45] 93% | residual activity [2, 45] 100% | residual activity [3, 45] 100% | residual activity [4, 45] 90% | residual activity [5, 45] 100% | residual activity [6, 45] 83% | residual activity [7, 45] 75% | residual activity [8, 45] 100% | residual activity [9, 45] 59% | residual activity [10, 45] 94% | residual activity [11, 45] 88% | residual activity [12, 45] 85% | residual activity [13, 45] 85% | residual activity [14, 45] 94% | residual activity [15, 45] 89% | residual activity [18, 45] 99% | residual activity [19, 45] 89% | residual activity [20, 45] 98% | residual activity [21, 45] 95% | residual activity [22, 45] 100% | residual activity [23, 45] 71% | residual activity [24, 45] 65% | residual activity [25, 45] 100% | residual activity [26, 45] 100% | residual activity [27, 45] 54% | residual activity [28, 45] 63% | residual activity [29, 45] 100% | residual activity [30, 45] 81% | residual activity [31, 45] 70% | residual activity [33, 45] 98% | residual activity [34, 45] 100% | residual activity [35, 45] 100% | residual activity [37, 45] 82% | residual activity [38, 45] 96% | residual activity [39, 45] 90% | residual activity [40, 45] 51% | residual activity [41, 45] 100% | residual activity [42, 45] 85% | inhibition [43] -7.85% | inhibition [44] 31.4%
active: residual activity [16, 45] 5.9% | residual activity [17, 45] 9% | residual activity [32, 45] 45% | residual activity [36, 45] 30%

CN(c1ccnc(CNc2nc(Nc3ccc4c(c3)CC(=O)N4)ncc2C(F)(F)F)n1)S(C)(=O)=O [PF-00911705]
active: residual activity [1, 46] 36% | residual activity [9, 46] 3.5% | residual activity [16, 46] 2% | residual activity [17, 46] 0% | residual activity [19, 46] 31% | residual activity [20, 46] 10% | residual activity [23, 46] 44% | residual activity [24, 46] 42% | residual activity [33, 46] 12% | residual activity [36, 46] 31% | residual activity [37, 46] 25% | residual activity [40, 46] 17% | inhibition [44] 62.1%
inactive: residual activity [2, 46] 73% | residual activity [3, 46] 100% | residual activity [4, 46] 73% | residual activity [5, 46] 100% | residual activity [6, 46] 67% | residual activity [7, 46] 90% | residual activity [8, 46] 84% | residual activity [10, 46] 81% | residual activity [11, 46] 74% | residual activity [12, 46] 76% | residual activity [13, 46] 87% | residual activity [14, 46] 96% | residual activity [15, 46] 82% | residual activity [18, 46] 74% | residual activity [21, 46] 79% | residual activity [22, 46] 56% | residual activity [25, 46] 72% | residual activity [26, 46] 85% | residual activity [27, 46] 93% | residual activity [28, 46] 53% | residual activity [29, 46] 60% | residual activity [30, 46] 84% | residual activity [31, 46] 68% | residual activity [32, 46] 100% | residual activity [34, 46] 50% | residual activity [35, 46] 68% | residual activity [38, 46] 50% | residual activity [39, 46] 76% | residual activity [41, 46] 100% | residual activity [42, 46] 82% | inhibition [43] 29.5%
